Assay results reported in PMC8775867, “The Systems of Naringenin with Solubilizers Expand Its Capability to Prevent Neurodegenerative Diseases” (International Journal of Molecular Sciences, 2022).
≈ marks a conversion by molar mass, not a printed value.

Biological target: T1, tyrosinase
T1 construct: gene PPO3
Experiment: L-DOPA oxidation, absorbance […] nm
Assay type: biochemical
Details: L-DOPA substrate, phosphate buffer pH 6.8, room temperature

SMILES	IC50 [µg/mL]	IC50 (NAR in DMSO) [µg/mL]
O=C(O)CCCCCCCC(=O)O [azelaic acid]	5883 ± 23 (≈ 31.3 mM)	–
O=C1C[C@@H](c2ccc(O)cc2)Oc2cc(O)cc(O)c21 [naringenin]	–	4615 ± 89 (≈ 17 mM)
